This is an account of results in PubChem BioAssay (NCI).

Test in all cases: DTP human tumour cell line panel, 48 h
Experiment [1] relates to HS 578T breast.
Experiment [2] has as its system MDA-N.
The subject of experiment [3] is DLD-1 colon.
Experiment [4] concerns SN12K1 renal.
Experiment [5] has as its system RXF-631 renal.
Experiment [6] relates to LXFL 529 NSCLC.

A word on the TGI: it is the concentration at which net growth stops. High values mean lower sensitivity of the cells, low ones greater sensitivity of the cells.

Each structure is given as a SMILES string.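 Five concentrations, 48 hours, 96-well plates. TGI denotes the concentration required for complete inhibition of growth.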

For the molecule `Cc1ccc(Nc2nc(=O)c3c([nH]c4ccccc43)s2)cc1`, the values for the TGI in experiment [1] and in experiment [2] were 75 µM and 5.87 µM, respectively.

Turning to `CSCC(CO)NC(=O)/C=C/c1c(C)[nH]c(=O)[nH]c1=O` (centres undefined), the concentration for total growth inhibition (TGI) in experiment [3] and in experiment [4] was > 875 µM each time.

In the case of `CC(=O)OC1CC(OC2C(O)CC(OC3C(O)CC(OC4CCC5(C)C(CCC6C5CCC5(C)C(C7=CC(=O)OC7)CCC65O)C4)OC3C)OC2C)OC(C)C1OC1OC(CO)C(O)C(O)C1O` (centres undefined), the total growth inhibition concentration (TGI) was 0.0926 µM in experiment [1] and 0.152 µM in experiment [2].

As for `O=C(Sc1n[nH]c(=O)[nH]c1=O)c1cccc2nc3ccccc3nc12`, the results for the TGI in experiment [1] and in experiment [2] were 77.8 µM and 28.6 µM, respectively.

For `CN(C)c1cccc(OC(=O)NCCCl)c1`, the TGI in experiment [3] and in experiment [4] was > 100 µM each time.

On to `CC1(C)N=C(c2ccccc2)SC12S[C@@H]1CCCC[C@H]1S2`, for which the TGI in experiment [1] came to 16.8 µM; in experiment [2] it was 93.5 µM.

On to `O=S(O)CCCSSSCCCS(=O)O`, for which the concentration for total growth inhibition (TGI) in experiment [5], in experiment [6] and in experiment [3] was > 100 µM in each case.

Regarding `CO/C=C1\OC(=O)C=C1OC`, the total growth inhibition concentration (TGI) in experiment [3] and in experiment [4] was > 100 µM each time.

Consider `c1ccc2c(c1)SP1Sc3ccccc3P21` (centres undefined), for which the TGI in experiment [3] and in experiment [4] was > 100 µM throughout.

Regarding `Cc1cccc2c1Sc1ccccc1C2NC(=O)CN(C)C` (centres undefined), the TGI in experiment [6] is > 100 µM.

For `CN(c1ccccc1)c1nc(=[N+]2CCCC2)ss1`, the TGI in experiment [5] and in experiment [6] was > 100 µM each time.

As for `NNC(=O)CCc1ccc2ccc3ccccc3c2c1`, the TGI in experiment [1] and in experiment [2] was > 100 µM each time.
